What was measured:
GSK-3β [1] = target: T1, GSK-3β (Homo sapiens, UniProt P49841); test: in vitro kinase assay with recombinant GSK-3β and immunoprecipitated N protein as substrate, single concentration ([…]); assay type: biochemical
T1 construct: gene GSK3B; human recombinant GSK-3β

GSK-3β [2] = target: T1, GSK-3β; test: in vitro kinase assay with recombinant GSK-3β; tau or immunoprecipitated N protein as substrate, gel mobility shift; assay type: biochemical

T1 sequence (P49841 whole entry): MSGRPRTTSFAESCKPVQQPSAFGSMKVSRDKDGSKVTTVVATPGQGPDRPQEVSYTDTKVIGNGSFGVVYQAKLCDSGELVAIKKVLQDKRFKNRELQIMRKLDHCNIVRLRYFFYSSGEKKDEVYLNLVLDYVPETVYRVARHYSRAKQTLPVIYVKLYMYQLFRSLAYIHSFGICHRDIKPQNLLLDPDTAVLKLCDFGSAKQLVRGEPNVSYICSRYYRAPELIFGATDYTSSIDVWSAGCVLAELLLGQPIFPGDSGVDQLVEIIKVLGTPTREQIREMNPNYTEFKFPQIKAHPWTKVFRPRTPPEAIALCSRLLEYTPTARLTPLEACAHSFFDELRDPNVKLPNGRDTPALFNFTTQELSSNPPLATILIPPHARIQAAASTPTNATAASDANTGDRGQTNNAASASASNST

| SMILES | in vitro kinase assay with recombinant GSK-3β and immunoprecipitated N protein a (GSK-3β [1]) [µM] | in vitro kinase assay with recombinant GSK-3β; tau or immunoprecipitated N prote (GSK-3β [2]) [µM] |
| --- | --- | --- |
| Cc1c[nH]c(-c2cnc(NCCNc3ccc(C#N)cn3)nc2-c2ccc(Cl)cc2Cl)n1 [CHIR99021] | 2 |  |
| Cn1cc(C2=C(c3cn(C4CCN(Cc5ccccn5)CC4)c4ccccc34)C(=O)NC2=O)c2ccccc21 [Enzastaurin] |  | 0.5 |

Reference: PMC8594528 (Proceedings of the National Academy of Sciences of the …, 2021)
